Measurements from the supplement of paper PMC10307832.

Tests used:
Test in all cases: relative viability (nuclei count vs DMSO), 5 days (fraction); higher = more cells survive
Axitinib + Alpelisib = compound: CNC(=O)c1ccccc1Sc1ccc2c(/C=C/c3ccccn3)n[nH]c2c1 [Axitinib] + Cc1nc(NC(=O)N2CCC[C@H]2C(N)=O)sc1-c1ccnc(C(C)(C)C(F)(F)F)c1 [Alpelisib] (partner 2 µM)
How it was run: (§1)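 Lung cancer cell lines in 1536-well plates got either a single drug or a fixed anchor-drug dose together with five library-drug doses (not always all listed) in √10 steps, by pin tool, on the day after seeding. Nuclei were counted after 5 days, and relative viability is the treated-to-vehicle ratio of nuclei counts. Values are medians of duplicate plates.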

Axitinib + Decitabine = compound: CNC(=O)c1ccccc1Sc1ccc2c(/C=C/c3ccccn3)n[nH]c2c1 [Axitinib] + Nc1ncn([C@H]2C[C@H](O)[C@@H](CO)O2)c(=O)n1 [Decitabine] (partner 2 µM)
How it was run: as §1

Bemcentinib + Vorinostat = compound: Nc1nc(Nc2ccc3c(c2)CC[C@@H](N2CCCC2)CC3)nn1-c1cc2c(nn1)-c1ccccc1CCC2 [Bemcentinib] + O=C(CCCCCCC(=O)Nc1ccccc1)NO [Vorinostat] (partner 1 µM)
How it was run: as §1

[1] = compound: Nc1nc(Nc2ccc3c(c2)CC[C@@H](N2CCCC2)CC3)nn1-c1cc2c(nn1)-c1ccccc1CCC2 [Bemcentinib] + CC(=O)c1c(C)c2cnc(Nc3ccc(N4CCNCC4)cn3)nc2n(C2CCCC2)c1=O [Palbociclib] (partner 0.5 µM)
How it was run: as §1

NCI-H441
relative viability (Axitinib + Alpelisib; first compound 0.005 µM): 0.79
relative viability (Axitinib + Alpelisib; first compound 0.01581 µM): 0.72
relative viability (Axitinib + Alpelisib; first compound 0.05 µM): 0.965
relative viability (Axitinib + Alpelisib; first compound 0.1581 µM): 0.561
relative viability (Axitinib + Alpelisib; first compound 0.5 µM): 0.852
relative viability (Axitinib + Decitabine; first compound 0.005 µM): 0.233
relative viability (Axitinib + Decitabine; first compound 0.01581 µM): 0.217
relative viability (Axitinib + Decitabine; first compound 0.05 µM): 0.253
relative viability (Axitinib + Decitabine; first compound 0.1581 µM): 0.21
relative viability (Axitinib + Decitabine; first compound 0.5 µM): 0.27
relative viability (Bemcentinib + Vorinostat; first compound 0.04 µM): 0.691
relative viability (Bemcentinib + Vorinostat; first compound 0.1265 µM): 0.824
relative viability (Bemcentinib + Vorinostat; first compound 0.4 µM): 0.735
relative viability (Bemcentinib + Vorinostat; first compound 1.265 µM): 0.87
relative viability (Bemcentinib + Vorinostat; first compound 4 µM): 0.756
relative viability ([1]; first compound 0.04 µM): 0.197
relative viability ([1]; first compound 0.1265 µM): 0.202
relative viability ([1]; first compound 0.4 µM): 0.227
relative viability ([1]; first compound 1.265 µM): 0.195
relative viability ([1]; first compound 4 µM): 0.223

LOU-NH91
relative viability (Axitinib + Alpelisib; first compound 0.005 µM): 0.772
relative viability (Axitinib + Alpelisib; first compound 0.01581 µM): 0.512
relative viability (Axitinib + Alpelisib; first compound 0.05 µM): 0.715
relative viability (Axitinib + Alpelisib; first compound 0.1581 µM): 0.702
relative viability (Axitinib + Alpelisib; first compound 0.5 µM): 0.778
relative viability (Axitinib + Decitabine; first compound 0.005 µM): 0.852
relative viability (Axitinib + Decitabine; first compound 0.01581 µM): 0.645
relative viability (Axitinib + Decitabine; first compound 0.05 µM): 0.813
relative viability (Axitinib + Decitabine; first compound 0.1581 µM): 0.749
relative viability (Axitinib + Decitabine; first compound 0.5 µM): 0.851
relative viability (Bemcentinib + Vorinostat; first compound 0.04 µM): 0.845
relative viability (Bemcentinib + Vorinostat; first compound 0.1265 µM): 0.871
relative viability (Bemcentinib + Vorinostat; first compound 0.4 µM): 0.999
relative viability (Bemcentinib + Vorinostat; first compound 1.265 µM): 0.917
relative viability (Bemcentinib + Vorinostat; first compound 4 µM): 0.945
relative viability ([1]; first compound 0.04 µM): 0.521
relative viability ([1]; first compound 0.1265 µM): 0.564
relative viability ([1]; first compound 0.4 µM): 0.525
relative viability ([1]; first compound 1.265 µM): 0.513
relative viability ([1]; first compound 4 µM): 0.537

NCI-H647
relative viability (Axitinib + Alpelisib; first compound 0.005 µM): 1.27
relative viability (Axitinib + Alpelisib; first compound 0.01581 µM): 1.24
relative viability (Axitinib + Alpelisib; first compound 0.05 µM): 1.28
relative viability (Axitinib + Alpelisib; first compound 0.1581 µM): 1.11
relative viability (Axitinib + Alpelisib; first compound 0.5 µM): 1.6
relative viability (Axitinib + Decitabine; first compound 0.005 µM): 0.262
relative viability (Axitinib + Decitabine; first compound 0.01581 µM): 0.378
relative viability (Axitinib + Decitabine; first compound 0.05 µM): 0.457
relative viability (Axitinib + Decitabine; first compound 0.1581 µM): 0.348
relative viability (Axitinib + Decitabine; first compound 0.5 µM): 0.495
relative viability (Bemcentinib + Vorinostat; first compound 0.04 µM): 0.649
relative viability (Bemcentinib + Vorinostat; first compound 0.1265 µM): 0.55
relative viability (Bemcentinib + Vorinostat; first compound 0.4 µM): 0.594
relative viability (Bemcentinib + Vorinostat; first compound 1.265 µM): 0.424
relative viability (Bemcentinib + Vorinostat; first compound 4 µM): 0.675
relative viability ([1]; first compound 0.04 µM): 0.43
relative viability ([1]; first compound 0.1265 µM): 0.445
relative viability ([1]; first compound 0.4 µM): 0.387
relative viability ([1]; first compound 1.265 µM): 0.315
relative viability ([1]; first compound 4 µM): 0.462

NCI-H1915
relative viability (Axitinib + Alpelisib; first compound 0.005 µM): 1.08
relative viability (Axitinib + Alpelisib; first compound 0.01581 µM): 1.08
relative viability (Axitinib + Alpelisib; first compound 0.05 µM): 1.03
relative viability (Axitinib + Alpelisib; first compound 0.1581 µM): 1.08
relative viability (Axitinib + Alpelisib; first compound 0.5 µM): 1.08
relative viability (Axitinib + Decitabine; first compound 0.005 µM): 0.249
relative viability (Axitinib + Decitabine; first compound 0.01581 µM): 0.254
relative viability (Axitinib + Decitabine; first compound 0.05 µM): 0.239
relative viability (Axitinib + Decitabine; first compound 0.1581 µM): 0.267
relative viability (Axitinib + Decitabine; first compound 0.5 µM): 0.262
relative viability (Bemcentinib + Vorinostat; first compound 0.04 µM): 0.508
relative viability (Bemcentinib + Vorinostat; first compound 0.1265 µM): 0.518
relative viability (Bemcentinib + Vorinostat; first compound 0.4 µM): 0.547
relative viability (Bemcentinib + Vorinostat; first compound 1.265 µM): 0.55
relative viability (Bemcentinib + Vorinostat; first compound 4 µM): 0.491
relative viability ([1]; first compound 0.04 µM): 0.532
relative viability ([1]; first compound 0.1265 µM): 0.506
relative viability ([1]; first compound 0.4 µM): 0.521
relative viability ([1]; first compound 1.265 µM): 0.512
relative viability ([1]; first compound 4 µM): 0.527

NCI-H1944
relative viability (Axitinib + Alpelisib; first compound 0.005 µM): 0.797
relative viability (Axitinib + Alpelisib; first compound 0.01581 µM): 0.827
relative viability (Axitinib + Alpelisib; first compound 0.05 µM): 0.855
relative viability (Axitinib + Alpelisib; first compound 0.1581 µM): 0.854
relative viability (Axitinib + Alpelisib; first compound 0.5 µM): 0.868
relative viability (Axitinib + Decitabine; first compound 0.005 µM): 0.47
relative viability (Axitinib + Decitabine; first compound 0.01581 µM): 0.428
relative viability (Axitinib + Decitabine; first compound 0.05 µM): 0.452
relative viability (Axitinib + Decitabine; first compound 0.1581 µM): 0.397
relative viability (Axitinib + Decitabine; first compound 0.5 µM): 0.455
relative viability (Bemcentinib + Vorinostat; first compound 0.04 µM): 0.521
relative viability (Bemcentinib + Vorinostat; first compound 0.1265 µM): 0.611
relative viability (Bemcentinib + Vorinostat; first compound 0.4 µM): 0.608
relative viability (Bemcentinib + Vorinostat; first compound 1.265 µM): 0.527
relative viability (Bemcentinib + Vorinostat; first compound 4 µM): 0.561
relative viability ([1]; first compound 0.04 µM): 0.324
relative viability ([1]; first compound 0.1265 µM): 0.379
relative viability ([1]; first compound 0.4 µM): 0.304
relative viability ([1]; first compound 1.265 µM): 0.327
relative viability ([1]; first compound 4 µM): 0.329

HARA
relative viability (Axitinib + Alpelisib; first compound 0.005 µM): 0.877
relative viability (Axitinib + Alpelisib; first compound 0.01581 µM): 0.909
relative viability (Axitinib + Alpelisib; first compound 0.05 µM): 0.975
relative viability (Axitinib + Alpelisib; first compound 0.1581 µM): 0.824
relative viability (Axitinib + Alpelisib; first compound 0.5 µM): 1.02
relative viability (Axitinib + Decitabine; first compound 0.005 µM): 0.575
relative viability (Axitinib + Decitabine; first compound 0.01581 µM): 0.396
relative viability (Axitinib + Decitabine; first compound 0.05 µM): 0.484
relative viability (Axitinib + Decitabine; first compound 0.1581 µM): 0.548
relative viability (Axitinib + Decitabine; first compound 0.5 µM): 0.581
relative viability (Bemcentinib + Vorinostat; first compound 0.04 µM): 0.402
relative viability (Bemcentinib + Vorinostat; first compound 0.1265 µM): 0.658
relative viability (Bemcentinib + Vorinostat; first compound 0.4 µM): 0.573
relative viability (Bemcentinib + Vorinostat; first compound 1.265 µM): 0.645
relative viability (Bemcentinib + Vorinostat; first compound 4 µM): 0.543
relative viability ([1]; first compound 0.04 µM): 0.211
relative viability ([1]; first compound 0.1265 µM): 0.252
relative viability ([1]; first compound 0.4 µM): 0.215
relative viability ([1]; first compound 1.265 µM): 0.314
relative viability ([1]; first compound 4 µM): 0.243

NCI-H2347
relative viability (Axitinib + Alpelisib; first compound 0.005 µM): 1.12
relative viability (Axitinib + Alpelisib; first compound 0.01581 µM): 1.17
relative viability (Axitinib + Alpelisib; first compound 0.05 µM): 1.05
relative viability (Axitinib + Alpelisib; first compound 0.1581 µM): 1.01
relative viability (Axitinib + Alpelisib; first compound 0.5 µM): 1.01
relative viability (Axitinib + Decitabine; first compound 0.005 µM): 0.699
relative viability (Axitinib + Decitabine; first compound 0.01581 µM): 0.543
relative viability (Axitinib + Decitabine; first compound 0.05 µM): 0.585
relative viability (Axitinib + Decitabine; first compound 0.1581 µM): 0.578
relative viability (Axitinib + Decitabine; first compound 0.5 µM): 0.686
relative viability (Bemcentinib + Vorinostat; first compound 0.04 µM): 0.544
relative viability (Bemcentinib + Vorinostat; first compound 0.1265 µM): 0.596
relative viability (Bemcentinib + Vorinostat; first compound 0.4 µM): 0.718
relative viability (Bemcentinib + Vorinostat; first compound 1.265 µM): 0.67
relative viability (Bemcentinib + Vorinostat; first compound 4 µM): 0.575
relative viability ([1]; first compound 0.04 µM): 0.438
relative viability ([1]; first compound 0.1265 µM): 0.467
relative viability ([1]; first compound 0.4 µM): 0.385
relative viability ([1]; first compound 1.265 µM): 0.443
relative viability ([1]; first compound 4 µM): 0.443
